In ChEMBL document CHEMBL3822451, “Structure-based design and synthesis of small molecular inhibitors disturbing the interaction of MLL1-WDR5” (Eur J Med Chem, 2016):
pIC50, pKd: −log10 of the molar value.

Key:
[1] = target: T1, WD repeat-containing protein 5 (Homo sapiens, UniProt P61964); assay: Inhibition of 10mer-Thr-FAM probe binding to His-tagged human WDR5 expressed in Escherichia coli incubated for 2 hrs by fluorescence polarization assay
[2] = target: T1, WD repeat-containing protein 5; assay: Binding affinity to His-tagged human WDR5 expressed in Escherichia coli by isothermal titration calorimetry

Row | SMILES | pIC50 [1] | pKd [2]
1 | Cc1c(F)ccc(C(=O)Nc2ccc(-c3ccc(C(=O)O)cc3)cc2N2CCN(C)CC2)c1Cl | < 4.70 | –
2 | CN1CCN(c2ccc([N+](=O)[O-])cc2NS(=O)(=O)c2ccc(F)cc2)CC1 | < 4.70 | –
3 | Cc1c(F)ccc(C(=O)Nc2ccc(-c3ccncc3)cc2N2CCN(C)CC2)c1Cl | < 4.70 | –
4 | CN1CCN(c2ccc([N+](=O)[O-])cc2C(=O)Nc2ccccc2Cl)CC1 | < 4.70 | –
5 | Cc1c(F)ccc(C(=O)Nc2ccc(-c3ccc([N+](=O)[O-])cc3)cc2N2CCN(C)CC2)c1Cl | < 4.70 | –
6 | Cc1c(F)ccc(C(=O)Nc2ccc(-c3ccc(N)cc3)cc2N2CCN(C)CC2)c1Cl | < 4.70 | –
7 | Cc1cc(C)c(S(=O)(=O)Nc2cc([N+](=O)[O-])ccc2N2CCN(C)CC2)c(C)c1 | < 4.70 | –
8 | COc1ccc(S(=O)(=O)Nc2cc([N+](=O)[O-])ccc2N2CCN(C)CC2)cc1 | < 4.70 | –
9 | CN1CCN(c2ccc([N+](=O)[O-])cc2C(=O)Nc2ccc(F)cc2F)CC1 | < 4.70 | –

The next lines start with the values.

Row | pIC50 [1] | pKd [2] | SMILES
10 | < 4.70 | – | COc1cccc(NC(=O)c2cc([N+](=O)[O-])ccc2N2CCN(C)CC2)c1
11 | < 4.70 | – | COc1ccc(S(=O)(=O)Nc2cc([N+](=O)[O-])ccc2N2CCN(C)CC2)cc1OC
12 | 6.69 | – | Cc1c(F)ccc(C(=O)Nc2cc(-c3ccc(N)cc3)ccc2N2CCN(C)CC2)c1Cl
13 | < 4.70 | – | Cc1c(F)ccc(C(=O)Nc2cc(N)ccc2N2CCN(C)CC2)c1Cl
14 | 6.98 | 6.88 | Cc1c(F)ccc(C(=O)Nc2cc(-c3ccncc3)ccc2N2CCN(C)CC2)c1Cl
15 | 6.68 | – | Cc1c(F)c([N+](=O)[O-])cc(C(=O)Nc2cc(-c3ccccc3)ccc2N2CCN(C)CC2)c1Cl
16 | 6.33 | – | Cc1c(F)ccc(C(=O)Nc2cc(-c3ccccc3)ccc2N2CCN(C)CC2)c1Cl
